Measured values reported in US20250000864A1, “GONADOTROPIN-RELEASING HORMONE ANTAGONIST, AND PREPARATION METHOD THEREFOR AND USE THEREOF” (SHANDONG LUYE PHARMACEUTICAL CO., LTD., priority 2021, published 2025).
Like-named read-outs stand apart in the source and are kept apart here.

Tests used:
[1] = target: T1, human GnRHR (Homo sapiens (Human), UniProt P30968); experiment: In vitro antagonistic activity screening (FLIPR calcium fluorescence, Leuprolide acetate stimulation); type: cell-based; details: HEK293 cells stably expressing human GnRHR
T1 sequence (P30968 whole entry): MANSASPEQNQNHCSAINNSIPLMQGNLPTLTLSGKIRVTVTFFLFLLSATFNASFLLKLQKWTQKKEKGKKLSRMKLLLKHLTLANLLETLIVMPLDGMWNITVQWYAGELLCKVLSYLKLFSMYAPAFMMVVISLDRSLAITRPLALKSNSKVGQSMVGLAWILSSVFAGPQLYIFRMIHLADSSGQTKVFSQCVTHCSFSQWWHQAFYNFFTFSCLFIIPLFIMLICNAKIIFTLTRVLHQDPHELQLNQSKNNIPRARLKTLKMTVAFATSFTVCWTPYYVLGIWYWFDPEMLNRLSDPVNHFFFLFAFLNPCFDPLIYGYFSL
Experimental: Cell: HEK293 cells stably expressing human GnRHR (WuXi AppTec (Shanghai) Co., Ltd.) Equipment: 384-well plate, Greiner; Vi-cell XR Cell Viability Analyzer, Beckman Coulter; incubator, Thermo.
Method: HEK293 cells stably expressing human GnRHR were seeded into a 384-well plate at a density of 20,000/well. Fluo-4 Direct™ No-wash Loading Buffer (Invitrogen) was added to each well the next day, and then the plate was put back into an incubator, incubated at 37° C. for 50 min, and then incubated at room temperature for 10 min. Test compounds were formulated in DMSO. […] Fluorescence values were determined using a FLIPR Tetra high throughput real-time fluorescence detection and assay system. Then 10 μL of Leuprolide acetate was added, and fluorescence values were determined. IC50 and IC90 of the compounds were calculated using Prism.

[2] = Pharmacokinetics in SD rats (i.v. and i.g.); type: in vivo; details: for bioavailability: i.g 12 mg/kg vs i.v 1 mg/kg, read-out: F (absolute bioavailability)
Experimental: (§1) Instrument: water purification equipment, Millipore; electronic balance, METTLER TOLEDO; high-speed benchtop centrifuge, Thermo; water bath thermostatic oscillator, Shanghai Yiheng Technical Co., Ltd.; vortex oscillator, Thermo; LC-MS/MS, AB SCIEX.
(§2) Method: all compounds were formulated in DMSO and 20% solutol. In the pharmacokinetic experiment, the administration dose for the intravenous group (i.v) was 1 mg/kg, and the administration dose for the intragastric group (i.g) was 12 mg/kg, each group containing 3 rats. Blood was collected from the orbit of the rats before (0 h) the administration and at set time points after administration. In the tissue distribution experiment, the rats were subjected to intragastric administration at a dose of 12 mg/kg. […] The […] in a heparinized EP tube and centrifuged at 13,500 rpm for 10 min to isolate the plasma. The pituitary was homogenized with water in a certain proportion. The plasma and pituitary homogenates were pre-treated and then analyzed by LC-MS/MS to determine the concentration of the test substances in the plasma and the pituitary. The plasma drug concentration data were processed in a non-compartmental model using WinNonlin™ Version 6.3 (Pharsight, Mountain View, CA) pharmacokinetic software.

[3] = target: human hERG potassium channel (Homo sapiens (Human), UniProt Q12809); experiment: hERG test (QPatch automated patch clamp, CHO cells); type: cell-based; details: for Inhibitory activity on the human hERG potassium channel compared with Relugolix: in words, vs Relugolix
Chain of human hERG potassium channel (Q12809 whole entry): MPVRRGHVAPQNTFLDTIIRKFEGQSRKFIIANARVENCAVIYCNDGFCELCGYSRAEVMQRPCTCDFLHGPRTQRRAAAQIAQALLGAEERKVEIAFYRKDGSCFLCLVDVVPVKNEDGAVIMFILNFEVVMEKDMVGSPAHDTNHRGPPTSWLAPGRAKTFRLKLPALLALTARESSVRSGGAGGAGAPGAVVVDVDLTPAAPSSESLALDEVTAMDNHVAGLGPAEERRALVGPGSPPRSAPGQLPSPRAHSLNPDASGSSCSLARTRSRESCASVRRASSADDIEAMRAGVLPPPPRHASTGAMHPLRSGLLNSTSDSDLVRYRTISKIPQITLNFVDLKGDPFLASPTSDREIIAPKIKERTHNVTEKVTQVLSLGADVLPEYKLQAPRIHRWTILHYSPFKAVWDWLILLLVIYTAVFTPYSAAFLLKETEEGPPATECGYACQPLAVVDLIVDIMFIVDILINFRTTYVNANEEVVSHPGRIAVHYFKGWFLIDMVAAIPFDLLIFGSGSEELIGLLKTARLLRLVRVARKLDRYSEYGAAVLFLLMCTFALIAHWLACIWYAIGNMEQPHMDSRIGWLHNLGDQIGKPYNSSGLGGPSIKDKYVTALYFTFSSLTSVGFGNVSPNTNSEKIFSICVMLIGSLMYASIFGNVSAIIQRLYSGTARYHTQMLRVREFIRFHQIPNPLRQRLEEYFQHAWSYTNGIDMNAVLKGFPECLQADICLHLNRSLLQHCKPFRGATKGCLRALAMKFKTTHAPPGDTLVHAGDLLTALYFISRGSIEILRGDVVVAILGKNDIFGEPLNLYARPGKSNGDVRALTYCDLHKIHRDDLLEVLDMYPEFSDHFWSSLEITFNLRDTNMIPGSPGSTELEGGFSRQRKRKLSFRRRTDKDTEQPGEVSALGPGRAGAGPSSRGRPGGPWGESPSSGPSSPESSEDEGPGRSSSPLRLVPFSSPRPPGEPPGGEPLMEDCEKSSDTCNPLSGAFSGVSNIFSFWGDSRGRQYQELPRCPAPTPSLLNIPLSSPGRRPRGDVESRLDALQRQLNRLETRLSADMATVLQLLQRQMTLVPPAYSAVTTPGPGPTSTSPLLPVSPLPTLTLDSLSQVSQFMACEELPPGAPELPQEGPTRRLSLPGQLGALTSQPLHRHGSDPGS
Experimental: Cell: CHO cells stably expressing a human hERG potassium channel (WuXi AppTec (Shanghai) Co., Ltd.) Reagent: physiological solution (pH=7.4): 140 mM NaCl, 4 mM KCl, 2 mM CaCl2), 1 mM MgCl2, 5 mM Glucose, 10 mM HEPES, Osmolarity: about 298 mOsm; external solution (pH=7.4): 80 mM NaCl, 4 mM KCl, 2 mM CaCl2), 1 mM MgCl2, 5 mM Glucose, 60 mM NMDG, 10 mM HEPES, Osmolarity: about 289 mOsm; internal solution (pH=7.4): 10 mM NaCl, 10 mM KCl, 110 mM KF, 10 mM HEPES, EGTA: […], Osmolarity: about 280 mOsm.
Equipment: QPatch high-throughput automated patch clamp system, Sophion.
Method: CHO cells stably expressing a human hERG potassium channel were digested with TrypLE and resuspended in a physiological solution for later use. The single-cell high-impedance sealing and whole-cell mode formation processes were automatically completed by Qpatch. The clamping voltage for the cells was −80 mV. Then a voltage of −50 mV was applied for 80 ms to subtract (current) leakage, and a voltage of +20 mV was applied for 4800 ms to open the hERG channel. The voltage was then reduced to −50 mV and maintained for 5000 ms. This process was used for data collection and analysis. Finally, the voltage was returned to the clamping voltage (−80 mV, 1000 ms). This process was repeated every 20,000 ms. 40 μL of solvent control (external solution+DMSO) was added first, and the test was performed for […] to collect baseline data. Then, 40 μL of each of the test compounds was added at various concentrations, and the test was performed for no less than […]. The compounds were each dissolved in DMSO, with test concentrations being 0.30 μM, 1.00 μM, 3.00 μM, 10.00 μM, and 30.00 μM. The IC50 data for the hERG test were obtained by analyzing using DataControl, Excel2013, and Prism.

[4] = Caco-2 two-way permeability and efflux; type: in vitro ADME; details: human; for efflux ratio at 120 min: Caco-2
Experimental: (§3) Instrument: water purification equipment, ELGA LabWate; biosafety cabinet, NUAIRE; thermostatic CO2 incubator, Thermo; microplate reader, PerkinElmer; LC-MS/MS, AB SCIEX.
(§4) Method: A Caco-2 monolayer cell model was used to determine the two-way permeability of the test substances and evaluate whether the test substances were transported by the efflux of a transporter. In the experiment, Caco-2 cells were seeded into a 96-well cell culture plate and cultured for 28 consecutive days for transport assay. The test substances were each administered on two sides. After being incubated for 120 min, the samples at the apical end A, at the basal end B, and with cell lysis were collected and quantitatively determined for the content of the test substances by using a liquid chromatography-tandem mass spectrometry (LC/MS/MS) method. The apparent permeability coefficient (Papp) in the direction from the apical end to the basal end (A-B) and in the direction from the basal end to the apical end (B-A) and the efflux ratio were calculated from the concentrations of the test substances.

[5] = target: T1, human GnRHR; experiment: In vitro binding screening ([125I][D-Trp6]-LH-RH displacement, Chem-1 cell membranes)
Experimental: [D-Trp6]-LH-RH, PerkinElmer; [D-Trp6]-LH-RH, Abcam.
Equipment: MicroBeta2 LumiJET system, PerkinElmer.
Method: Chem-1 cell membranes stably expressing human GnRHR were resuspended in HEPES at pH 7.4. […] [D-Trp6]-LH-RH was used in the non-specific binding assay. Cell membranes were collected by filtration under vacuum and washed before liquid scintillation. The binding IC50 and IC90 of the compounds were calculated using Prism.

[6] = Pituitary tissue distribution in SD rats after intragastric administration; type: in vivo; set-up: Plasma concentration / Pituitary concentration: unit not given here; details: i.g 12 mg/kg; for Concentration in the pituitary relative to Relugolix: vs Relugolix; for Concentration in the pituitary relative to compound 2A: vs compound 2A
Experimental: as §1, §2

[7] = Metabolic stability in rat liver microsomes; type: in vitro ADME, SD rat; details: Rat liver microsomes
Experimental: (§5) Liver Microsome: Rat Liver Microsome and Human Liver Microsome Reagent: NADPH, Roche Diagnostics Gmbh; ACN, Merck Chemical; Tolbutamide, Sigma. Instrument: water purification equipment, Millipore; electronic balance, METTLER TOLEDO; high-speed benchtop centrifuge, Thermo; water bath thermostatic oscillator, Shanghai Yiheng Technical Co., Ltd.; vortex oscillator, Thermo; LC-MS/MS, AB SCIEX. Method: the metabolic stability of test substances was evaluated by using SD rat and human liver microsomes. The test substances were incubated with liver microsomes from different species by using NADPH under a water bath at 37° C. A cold acetonitrile solution containing a Tolbutamide internal standard substance was added at a specified time point to terminate the reaction. The samples were pre-treated and then subjected to semi-quantitative analysis by LC-MS/MS. The retention times of the analytes and Tolbutamide internal standard, the acquisition of chromatograms, and the integration of chromatograms were processed using software Analyst (A Sciex, Framingham, Massachusetts, USA). The in vitro elimination rate constant Ke of the samples was obtained by converting the ratio of the peak area of the samples to the peak area of the internal standard into the residual percentage, and the in vitro clearance rate and the half-life of the test samples were calculated.

[8] = Metabolic stability in human liver microsomes; type: in vitro ADME
Experimental: as §5

[9] = test system: Caco-2 cells; experiment: Caco-2 two-way permeability and efflux; type: in vitro ADME
Experimental: as §3, §4

[10] = male, Sprague-Dawley (SD), rat, plasma, iv, i.v 1 mg/kg
[11] = male, Sprague-Dawley (SD), rat, plasma, po, i.g 12 mg/kg
[12] = intragastric group, vs Relugolix
[13] = intragastric group, vs compound 2A

In the case of CCNC(=O)Nc1ccc(-c2sc3c(c2CN(C)C)c(=O)n(-c2ccc(OC)nn2)c(=O)n3Cc2c(F)cccc2F)cc1 [Compound 2A], the IC50 ([1]; read-out: Functional IC50) is reported as 1.84 nM, the IC90 ([1]; read-out: Functional IC90) is reported as 8.19 nM and the AUC(0-t) [2, 10] is reported as 487 ± 150 ng·h/mL. The C0 [2, 10] was 521 ± 322 ng/mL, the MRT last [2, 10] was 4.14 ± 1.83 h and the half-life [2, 10] was 6.64 ± 3.1 h. It also gave an AUC(0-t) [2, 11] of 370 ± 109 ng·h/mL, a Cmax [2, 11] of 69.9 ± 15.1 ng/mL and an MRT last [2, 11] of 9.2 ± 2.3 h. For the same molecule, the half-life [2, 11] was 18 ± 15.9 h, the bioavailability ([2]; male, Sprague-Dawley (SD), rat, plasma, po) was 6.33% and the Tmax ([2]; male, Sprague-Dawley (SD), rat, plasma, po, i.g 12 mg/kg, read-out: Tmax) was 0.25 h. For the same molecule, the IC50 ([3]; CHO cells stably expressing human hERG potassium channel) was 6070 nM, the “Inhibitory activity on the human hERG potassium channel compared with Relugolix” value [3] was “equal to or less than that of Relugolix” and the efflux ratio at 120 min ([4]; read-out: Efflux ratio) was 1180. For the same molecule, the Papp A→B at 120 min ([4]; Caco-2, 120 min incubation) was 0.00816 ×10⁻⁶ cm/s, the Papp B→A at 120 min ([4]; Caco-2, 120 min incubation) was 9.65 ×10⁻⁶ cm/s and the IC90 [5] was 13.2 nM. The IC50 ([5]; Chem-1 cell membranes, 0.05 nM [125I]-[D-Trp6]-LH-RH) was 0.87 nM, the Pituitary concentration ([6]; 1 h) was 280 ± 80 and the Plasma concentration ([6]; 1 h) was 32.2 ± 18.0. For the same molecule, the Pituitary concentration ([6]; 4 h) was 279 ± 70, the Plasma concentration ([6]; 4 h) was 13.3 ± 5.1 and the Pituitary concentration ([6]; 12 h) was 333 ± 90. The Plasma concentration ([6]; 12 h) was 5.59 ± 1.55, the Kp at 1 h ([6]; male, Sprague-Dawley (SD), rat, pituitary/plasma, oral, 1 h) was 8.7 and the Kp at 4 h ([6]; male, Sprague-Dawley (SD), rat, pituitary/plasma, oral, 4 h) was 21. For the same molecule, the Kp at 12 h ([6]; male, Sprague-Dawley (SD), rat, pituitary/plasma, oral, 12 h) was 59.6.

With CCNC(=O)Nc1ccc(-c2sc3c(c2CN(C)C)c(=O)n(-c2ccc(OC)nn2)c(=O)n3Cc2c(F)cccc2F)cn1 [Compound 2] the “Residual content at 60 min” value ([7]; NADPH, 37° C.) was 61.0%, the CLint scaled ([7]; SD) was 28.4 mL/min/kg and the half-life ([7]; SD) was 1.46 h. It also gave a microsomal CLint ([7]; SD, read-out: CLint(mic)) of 15.8 µL/min/mg, a CLint scaled [8] of 4.86 mL/min/kg and a half-life [8] of 4.28 h. The “Residual content at 60 min” value ([8]; NADPH, 37° C.) was 83.8%, the microsomal CLint ([8]; read-out: CLint(mic)) was 5.4 µL/min/mg and the “AUClast relative to Relugolix” value [2, 12] was 2.45 fold. For the same molecule, the “Absolute bioavailability relative to Relugolix” value [2, 12] was 3.47 fold, the “Cmax relative to Relugolix” value [2, 12] was 3.63 fold and the “AUClast relative to compound 2A” value [2, 13] was 0.96 fold. The “Absolute bioavailability relative to compound 2A” value [2, 13] was 3.14 fold, the “Cmax relative to compound 2A” value [2, 13] was 1.12 fold and the bioavailability ([2]; male, rat, plasma, oral) was 19.9%. The “Inhibitory activity on the human hERG potassium channel compared with Relugolix” value [3] was “equal to or less than that of Relugolix”, the efflux ratio at 120 min [4] was ~6 and the Efflux ratio ([9]; Caco-2) was 294. For the same molecule, the “Mean Papp A to B” value ([9]; Caco-2, 120 min incubation) was 0.0142 10^−6 cm/s, the “Mean Papp B to A” value ([9]; Caco-2, 120 min incubation) was 4.19 10^−6 cm/s and the Pituitary concentration ([6]; 1 h) was 2250 ± 474. The Pituitary/plasma ([6]; 1 h) was 56.9, the Plasma concentration ([6]; 1 h) was 39.5 ± 14.0 and the “Concentration in the pituitary relative to Relugolix” value ([6]; 1 h) was 2.38 fold. For the same molecule, the “Concentration in the pituitary relative to compound 2A” value ([6]; 1 h) was 8.04 fold, the Pituitary concentration ([6]; 4 h) was 1841 ± 636 and the Pituitary/plasma ([6]; 4 h) was 80.8. The Plasma concentration ([6]; 4 h) was 22.8 ± 2.5, the “Concentration in the pituitary relative to Relugolix” value ([6]; 4 h) was 1.48 fold and the “Concentration in the pituitary relative to compound 2A” value ([6]; 4 h) was 6.60 fold. For the same molecule, the Pituitary concentration ([6]; 12 h) was 1254 ± 494, the Pituitary/plasma ([6]; 12 h) was 129 and the Plasma concentration ([6]; 12 h) was 9.70 ± 3.10. For the same molecule, the “Concentration in the pituitary relative to Relugolix” value ([6]; 12 h) was 2.46 fold and the “Concentration in the pituitary relative to compound 2A” value ([6]; 12 h) was 3.77 fold.
